Consider 27 molecules from patent US20120015907A1, “Furopyridine compounds and uses thereof” (NOVARTIS AG, priority 2010, published 2012).

In general, IC50 refers to the concentration that gives 50% inhibition.

In this assay the target is T1, HCV polymerase (Hepatitis C virus genotype 1b, UniProt Q9WMX2).
T1 construct: (His)6 (C)
The experiment in a line: biochemical. The settings on record: polymerase assay of Biological Example 1; read-out: NS5B polymerase IC50. From the text:
A number of assays have been published to assess these activities. A general method that assesses the gross increase of HCV virus in culture was disclosed in U.S. Pat. No. 5,738,985 to Miles et al. In vitro assays have been reported in Ferrari et al. Jnl. of Vir., 73:1649-1654, 1999; Ishii et al., Hepatology, 29:1227-1235, 1999; Lohmann et al., Jnl of Bio. Chem., 274:10807-10815, 1999; and Yamashita et al., Jnl. of Bio. Chem., 273:15479-15486, 1998.
WO 97/12033, filed on Sep. 27, 1996, by Emory University, listing C. Hagedorn and A. Reinoldus as inventors, which claims priority to U.S. Provisional Patent Application Ser. No. 60/004,383, filed on September 1995, described an HCV polymerase assay that can be used to evaluate the activity of the of the compounds described herein. Another HCV polymerase assay has been reported by Bartholomeusz, et al., Hepatitis C Virus (HCV) RNA polymerase assay using cloned HCV non-structural proteins; Antiviral Therapy 1996:1(Supp 4) 18-24.
In the case of `CNC(=O)c1c(-c2ccc(F)cc2)oc2nc(N(Cc3cccc(C(N)=O)c3)S(C)(=O)=O)c(I)cc12` [Example 18.8, 6-(N-(3-carbamoylbenzyl)methylsulfonamido)-2-(4-fluorophenyl)-5-iodo-N-methylfuro[2,3-b]pyridine-3-carboxamide], the IC50 is 51 nM.
For the molecule `CNC(=O)c1c(-c2ccc(F)cc2)oc2nc(N(CCCCC#N)S(C)(=O)=O)c(I)cc12` [Example 18.9, 6-(N-(4-cyanobutyl)methylsulfonamido)-2-(4-fluorophenyl)-5-iodo-N-methylfuro[2,3-b]pyridine-3-carboxamide], the IC50 is 109 nM.
In the case of `CNC(=O)c1c(-c2ccc(F)cc2)oc2nc(N(CCCN3CCNC3=O)S(C)(=O)=O)c(I)cc12` [Example 18.91, 2-(4-fluorophenyl)-5-iodo-N-methyl-6-(N-(3-(2-oxoimidazolidin-1-yl)propyl)methylsulfonamido)furo[2,3-b]pyridine-3-carboxamide], the IC50 came out at 133 nM.
The figure for `CNC(=O)c1c(-c2ccc(F)cc2)oc2nc(N(CC3CCCN(C(=O)OC(C)(C)C)C3)S(C)(=O)=O)c(I)cc12` (stereo not drawn) [Example 18.92, tert-butyl 3-((N-(2-(4-fluorophenyl)-5-iodo-3-(methylcarbamoyl)furo[2,3-b]pyridin-6-yl)methylsulfonamido)methyl)piperidine-1-carboxylate] is 1020 nM; for `CNC(=O)c1c(-c2ccc(F)cc2)oc2nc(N(CCCC(O)CO)S(C)(=O)=O)c(I)cc12` (stereo not drawn) [Example 18.93, 6-(N-(4,5-dihydroxypentyl)methylsulfonamido)-2-(4-fluorophenyl)-5-iodo-N-methylfuro[2,3-b]pyridine-3-carboxamide] it is 108 nM; for `CNC(=O)c1c(-c2ccc(F)cc2)oc2nc(N(CCC(O)CO)S(C)(=O)=O)c(I)cc12` (stereo not drawn) [Example 18.94, 6-(N-(3,4-dihyroxybutyl)methylsulfonamido)-2-(4-fluorophenyl)-5-iodo-N-methylfuro[2,3-b]pyridine-3-carboxamide] it is 243 nM.
The figure for `CNC(=O)c1c(-c2ccc(Cl)cc2)oc2nc(N(CCCS(C)(=O)=O)S(C)(=O)=O)c(I)cc12` [Example 18.991, 2-(4-chlorophenyl)-5-iodo-N-methyl-6-(N-(3-(methylsulfonyl)propyl)methylsulfonamido)furo[2,3-b]pyridine-3-carboxamide] is 29 nM.
On to `CNC(=O)c1c(-c2ccc(F)cc2)oc2nc(N(CCCOCCOC)S(C)(=O)=O)c(I)cc12` [Example 18.992, 2-(4-fluorophenyl)-5-iodo-6-(N-(3-(2-methoxyethoxy)propyl)methylsulfonamido)-N-methylfuro[2,3-b]pyridine-3-carboxamide], for which the half-maximal inhibitory concentration (IC50) is 237 nM.
Consider `CNC(=O)c1c(-c2ccc(F)cc2)oc2nc(N(CCCS(C)(=O)=O)S(C)(=O)=O)c(I)cc12` [Example 18.993, 2-(4-fluorophenyl)-5-iodo-N-methyl-6-(N-(3-(methylsulfonyl)propyl)methylsulfonamido)furo[2,3-b]pyridine-3-carboxamide], for which the concentration for half-maximal inhibition (IC50) stood at 112 nM.
Next, `CNC(=O)c1c(-c2ccc(F)cc2)oc2nc(N(CCCC(C)O)S(C)(=O)=O)c(I)cc12` (stereo not drawn) [Example 18.998, 2-(4-fluorophenyl)-6-(N-(4-hydroxypentyl)methylsulfonamido)-5-iodo-N-methylfuro[2,3-b]pyridine-3-carboxamide]: 39 nM.
The figure for `CNC(=O)c1c(-c2ccc(C)cc2)oc2nc(N(CCC3CCCC3C(=O)O)S(C)(=O)=O)c(I)cc12` (stereo not drawn) [Example 18.999, 2-(2-(N-(5-iodo-3-(methylcarbamoyl)-2-p-tolylfuro[2,3-b]pyridin-6-yl)methylsulfonamido)ethyl)cyclopentanecarboxylic acid] is 4 nM; for `CNC(=O)c1c(-c2ccc(C)cc2)oc2nc(N(CCCC3CCCC3C(=O)O)S(C)(=O)=O)c(I)cc12` (stereo not drawn) [Example 18.9991, 2-(3-(N-(5-iodo-3-(methylcarbamoyl)-2-p-tolylfuro[2,3-b]pyridin-6-yl)methylsulfonamido)propyl)cyclopentanecarboxylic acid] it is 5 nM.
As for `CNC(=O)c1c(-c2ccc(F)cc2)oc2nc(N(CCCCN)S(C)(=O)=O)c(I)cc12` [Example 20, 6-[(4-Amino-butyl)-methanesulfonyl-amino]-2-(4-fluoro-phenyl)-5-iodo-furo[2,3-b]pyridine-3-carboxylic acid methylamide], the IC50 was 1840 nM.
The figure for `CCc1cc2c(C(=O)NC)c(-c3ccc(F)cc3)oc2nc1N(CCCCC(=O)OC)S(C)(=O)=O` [Example 21, methyl 5-(N-(5-ethyl-2-(4-fluorophenyl)-3-(methylcarbamoyl)furo[2,3-b]pyridin-6-yl)methylsulfonamido)pentanoate] is 10 nM.
`CCc1cc2c(C(=O)NC)c(-c3ccc(F)cc3)oc2nc1N(CCCC(=O)OC)S(C)(=O)=O` [Example 21.1, methyl 4-(N-(5-ethyl-2-(4-fluorophenyl)-3-(methylcarbamoyl)furo[2,3-b]pyridin-6-yl)methylsulfonamido)butanoate]: the IC50 turned out to be 52 nM.
The figure for `CCc1cc2c(C(=O)NC)c(-c3ccc(F)cc3)oc2nc1N(CCCCC(=O)O)S(C)(=O)=O` [Example 21.2, 5-(N-(5-ethyl-2-(4-fluorophenyl)-3-(methylcarbamoyl)furo[2,3-b]pyridin-6-yl)methylsulfonamido)pentanoic acid] is 12 nM; for `CCc1cc2c(C(=O)NC)c(-c3ccc(F)cc3)oc2nc1N(CCCC(C)(C)C(=O)OCC(C)C)S(C)(=O)=O` [Example 21.3, isobutyl 5-(N-(5-ethyl-2-(4-fluorophenyl)-3-(methylcarbamoyl)furo[2,3-b]pyridin-6-yl)methylsulfonamido)-2,2-dimethylpentanoate] it is 134 nM.
Turning to `CCc1cc2c(C(=O)NC)c(-c3ccc(F)cc3)oc2nc1N(CCCC(C)(C)C(=O)O)S(C)(=O)=O` [Example 21.4, 5-(N-(5-ethyl-2-(4-fluorophenyl)-3-(methylcarbamoyl)furo[2,3-b]pyridin-6-yl)methylsulfonamido)-2,2-dimethylpentanoic acid], the IC50 was determined as 7 nM.
Next, `CCc1cc2c(C(=O)NC)c(-c3ccc(F)cc3)oc2nc1N(CCCOc1ccccc1C#N)S(C)(=O)=O` [Example 21.5, 6-(N-(3-(2-cyanophenoxy)propyl)methylsulfonamido)-5-ethyl-2-(4-fluorophenyl)-N-methylfuro[2,3-b]pyridine-3-carboxamide]: 191 nM.
Next, `CCc1cc2c(C(=O)NC)c(-c3ccc(F)cc3)oc2nc1N(C[C@@H](C)Cc1ccc(OC)nc1)S(C)(=O)=O` [Example 21.6, (S)-5-ethyl-2-(4-fluorophenyl)-6-(N-(3-(6-methoxypyridin-3-yl)-2-methylpropyl)methylsulfonamido)-N-methylfuro[2,3-b]pyridine-3-carboxamide]: 948 nM; `CCc1cc2c(C(=O)NC)c(-c3ccc(F)cc3)oc2nc1N(C[C@H](C)Cc1ccc(OC)nc1)S(C)(=O)=O` [Example 21.7, (R)-5-ethyl-2-(4-fluorophenyl)-6-(N-(3-(6-methoxypyridin-3-yl)-2-methylpropyl)methylsulfonamido)-N-methylfuro[2,3-b]pyridine-3-carboxamide]: 531 nM; `CCc1cc2c(C(=O)NC)c(-c3ccc(F)cc3)oc2nc1N(CCOCCOC)S(C)(=O)=O` [Example 21.8, 5-ethyl-2-(4-fluorophenyl)-6-(N-(2-(2-methoxyethoxy)ethyl)methylsulfonamido)-N-methylfuro[2,3-b]pyridine-3-carboxamide]: 688 nM.
The figure for `CCc1cc2c(C(=O)NC)c(-c3ccc(F)cc3)oc2nc1N(CCc1cccc(OC)c1)S(C)(=O)=O` [Example 21.9, 5-ethyl-2-(4-fluorophenyl)-6-(N-(3-methoxyphenethyl)methylsulfonamido)-N-methylfuro[2,3-b]pyridine-3-carboxamide] is 772 nM; for `CCc1cc2c(C(=O)NC)c(-c3ccc(F)cc3)oc2nc1N(CCOc1ccccc1OC)S(C)(=O)=O` [Example 21.91, 5-ethyl-2-(4-fluorophenyl)-6-(N-(2-(2-methoxyphenoxy)ethyl)methylsulfonamido)-N-methylfuro[2,3-b]pyridine-3-carboxamide] it is 570 nM.
For the molecule `CCc1cc2c(C(=O)NC)c(-c3ccc(F)cc3)oc2nc1N(CCCOc1ccccc1OC)S(C)(=O)=O` [Example 21.92, 5-ethyl-2-(4-fluorophenyl)-6-(N-(3-(2-methoxyphenoxy)propyl)methylsulfonamido)-N-methylfuro[2,3-b]pyridine-3-carboxamide], the IC50 is 352 nM.
For `CCc1cc2c(C(=O)NC)c(-c3ccc(F)cc3)oc2nc1N(CCCN1CCOCC1)S(C)(=O)=O` [Example 21.93, 5-ethyl-2-(4-fluorophenyl)-N-methyl-6-(N-(3-morpholinopropyl)methylsulfonamido)furo[2,3-b]pyridine-3-carboxamide], the IC50 stood at 186 nM.
For the molecule `CCc1cc2c(C(=O)NC)c(-c3ccc(F)cc3)oc2nc1N(CCCN1CCN(C)C1=O)S(C)(=O)=O` [Example 21.94, 5-ethyl-2-(4-fluorophenyl)-N-methyl-6-(N-(3-(3-methyl-2-oxoimidazolidin-1-yl)propyl)methylsulfonamido)furo[2,3-b]pyridine-3-carboxamide], the IC50 is 77 nM.
